Results on six molecules are retold here after paper PMC5007854, “β-Nitrostyrenes as Potential Anti-leishmanial Agents” (Frontiers in Microbiology, 2016).

≈ marks a conversion by molar mass, not a printed value. A value given as a limit tells only on which side of the number the result lay.

Series [1] concerns L. donovani promastigotes. The series can be described thus: Anti-leishmanial screening at 100 μM, parasite viability by microscopy. In kind it is cell-based, Leishmania donovani. The note with it: L. donovani promastigotes. As to the method:
L. donovani parasites (MHOM/IN/83/AG83) were maintained in vivo in BALB/c mice. Promastigotes were routinely cultured at 22°C in medium M199 supplemented with 10% heat inactivated fetal bovine serum (FBS, HiMedia Laboratories, Mumbai, India), penicillin 100 (IU/ml), streptomycin (100 μg/ml). Log phase promastigotes were sub-cultured every 72–96 h, the inoculum being 2 × 10^6 cells/ml (Afrin et al., [2002]).
Nitrostyrine series were screened for their antileishmanial activity against L. donovani promastigotes in vitro. Promastigotes of L. donovani (2 × 10^6 cells/mL) in M199 medium were incubated at 22°C for 72 h with each compound at a concentration of 100 μM. Amphotericin B (AmB) served as reference drug, 0.2% DMSO was used as solvent control. Parasites with media alone were taken as control. Parasite viability was determined microscopically after 72 h (Islamuddin et al., [2014b]).

Series [2] has as its system Candida albicans ATCC 90028. Kind of series: Broth microdilution antifungal susceptibility (MIC/MFC). In kind it is cell-based. The note with it: Candida albicans; for MIC: ATCC90028, 48 h, broth microdilution, 35°C, 48 h, read-out: MIC, Ca ATCC 90028; for MFC: ATCC90028, ≥99.9% reduction of original inoculum, read-out: MFC, Ca ATCC 90028. The source says:
(§1) One reference each of the following species was used for their in vitro susceptibility to β-nitrostyrene in this study: Staphylococcus aureus ATCC 29213, Staphylococcus epidermidis ATCC 14990, Escherichia coli ATCC 25922, Pseudomonas aeruginosa ATCC 27853, Candida albicans ATCC 90028, Candida glabrata ATCC 90030, Aspergillus fumigatus ATCC 16424 and Aspergillus niger ATCC 16404. These strains were procured from the American Type Culture Collection (ATCC, Manassas, VA, USA).
(§2) The antibacterial and antifungal activities of the β-nitrostyrenes were performed by broth microdilution methods as per the guidelines of Clinical and Laboratory Standard Institute (Wayne, [1998], [2008a],[b],[c]) by using Mueller-Hinton broth (MHB; Becton-Dickinson, Cockeysville, MD, USA) supplemented with calcium (25 mg/L) and magnesium (12.5 mg/L) for bacterial strains while as RPMI 1640 medium with L-glutamine and without sodium bicarbonate, buffered to pH 7.0 with 0.165 M 3-(N-morpholino) propanesulfonic acid (MOPS; both from Sigma) was used for fungal strains. Stock solutions were prepared in 100% dimethyl sulfoxide (DMSO; Sigma; distilled water was used for ciprofloxacin), with a final DMSO concentration of 1% (vol. per vol.) and two-fold serial dilutions were prepared in media in amounts of 100 μL per well in 96-well U-bottom microtiter plates (Tarsons, Kolkata, India) to yield twice the final concentration required for testing, which ranged from 64 to 0.12 μg/mL for β-nitrostyrenes and 16 to 0.03 μg/mL for ciprofloxacin as well as amphotericin B. Stock inoculum suspensions of the bacteria, Candida species and Aspergillus species were prepared in sterile normal saline (0.85%) containing 0.05% polysorbate 20 (NST) from overnight (3 to 5-day old for Aspergillus species) strains grown on Trypticase soy agar (TSA; Becton-Dickinson) and potato dextrose agar (Difco Laboratories, Detroit, MI, USA) respectively at 35°C. Inocula were verified for each assay by plating onto agar plates for colony enumeration. These suspensions were further diluted in the respective test medium and a 100 μl volume of this diluted inoculum was added to each well of the plate, resulting in a final inoculum concentration of approximately 5 × 10^5 CFU/mL for bacter1ia, (Wayne, [2008a]) approximately 2.5 × 10^4 CFU/ml for Candida species (Pfaller et al., [2004]) while as 0.4 × 10^4 to 5 × 10^4 CFU/mL for Aspergillus species (Wayne, [2008c]). Untreated growth control, vehicle control (DMSO) and sterility control wells were included for each isolate tested. Ciprofloxacin and amphotericin B served as the standard drug controls for bacterial and fungal strains, respectively. The microtiter plates were incubated at 35°C for 24 h for bacterial strains and 48 h for fungal strains. The plates were read visually and the minimum inhibitory concentration (MIC) was defined as the lowest concentration of test sample that prevented visible growth with respect to the growth control.
(§3) The minimum bactericidal concentration (MBC) and minimum fungicidal concentration (MFC) were determined by plating 100 μl volumes on agar plates from the wells showing no visible growth (clear MIC well). The plates were incubated as described above in MIC measurements. […] All experiments were conducted twice in duplicates on separate occasions with freshly prepared inoculums and stock solutions.
On the technique in general: Dilution methods test growth across graded concentrations, often in twofold steps.

For series [3], the system named is Candida glabrata ATCC 90030. Described as above. The settings on record: Nakaseomyces glabratus; for MIC: ATCC90030, 48 h, broth microdilution, 35°C, 48 h, read-out: MIC, Cg ATCC 90030; for MFC: ATCC90030, ≥99.9% reduction of original inoculum, read-out: MFC, Cg ATCC 90030. In kind it is cell-based.
Source text: as §1, §2, §3

Series [4] has as its system Aspergillus niger ATCC 16404. The series is described as above. In kind it is cell-based. The note with it: Aspergillus niger; for MIC: ATCC16404, 48 h, broth microdilution, 35°C, 48 h, read-out: MIC, An ATCC 16404; for MFC: ATCC16404, ≥99.9% reduction of original inoculum, read-out: MFC, An ATCC 16404.
Source text: as §1, §2, §3

Series [5] has as its system Aspergillus fumigatus ATCC 16424. The description is as above. In kind it is cell-based. The settings on record: Aspergillus fumigatus; for MIC: ATCC16424, 48 h, broth microdilution, 35°C, 48 h, read-out: MIC, Af ATCC 16424; for MFC: ATCC16424, ≥99.9% reduction of original inoculum, read-out: MFC, Af ATCC 16424.
Source text: as §1, §2, §3

For series [6], the system named is Staphylococcus aureus ATCC 29213. The series can be described thus: Broth microdilution antibacterial susceptibility (MIC/MBC). In kind it is cell-based. The settings on record: Staphylococcus aureus; for MIC: ATCC29213, 24 h, broth microdilution, 35°C, 24 h, read-out: MIC, Sa ATCC 29213; for MBC: ATCC29213, ≥99.9% reduction of original inoculum, read-out: MBC, Sa ATCC 29213.
Source text: as §1, §2, §3

Series [7] concerns Pseudomonas aeruginosa ATCC 27853. The series is described as above. The note with it: Pseudomonas aeruginosa; for MIC: ATCC27853, 24 h, broth microdilution, 35°C, 24 h, read-out: MIC, Pa ATCC 27853; for MBC: ATCC27853, ≥99.9% reduction of original inoculum, read-out: MBC, Pa ATCC 27853. In kind it is cell-based.
Source text: as §1, §2, §3

The subject of series [8] is Escherichia coli ATCC 25922. The description is as above. In kind it is cell-based. The note with it: Escherichia coli; for MIC: ATCC25922, 24 h, broth microdilution, 35°C, 24 h, read-out: MIC, Ec ATCC 25922; for MBC: ATCC25922, ≥99.9% reduction of original inoculum, read-out: MBC, Ec ATCC 25922.
Source text: as §1, §2, §3

The test system of series [9] is Staphylococcus epidermidis ATCC 14990. The series is described as above. In kind it is cell-based. The note with it: Staphylococcus epidermidis; for MIC: ATCC14990, 24 h, broth microdilution, 35°C, 24 h, read-out: MIC, Se ATCC 14990; for MBC: ATCC14990, ≥99.9% reduction of original inoculum, read-out: MBC, Se ATCC 14990.
Source text: as §1, §2, §3

`CC/C(=C\c1ccc(OC)cc1)[N+](=O)[O-]` [Compound 15, 1-methoxy-4-((E)-2-nitrobut-1-enyl) benzene]: the “Anti-leishmanial activity, in words (SAR discussion)” value (“Anti-leishmanial activity, in words” for short) in series [1] is “reduced the activity”. Moreover, the MIC (in general, the least concentration at which growth counts as inhibited) was 32 µg/mL (≈ 154 µM) in series [2]; 16 µg/mL (≈ 77.2 µM) in [3]; 8 µg/mL (≈ 38.6 µM) in series [4]; 8 µg/mL (≈ 38.6 µM) in series [5]; 16 µg/mL (≈ 77.2 µM) in series [6]; more than 64 µg/mL in series [7]. For the same molecule, the MIC in series [8] was more than 64 µg/mL; in series [9], 16 µg/mL (≈ 77.2 µM). For the same molecule, the minimum fungicidal concentration (MFC) (as a rule, the smallest concentration meeting the test's criterion for killing the fungus) in series [2] came out at 32 µg/mL (≈ 154 µM); in series [3], 16 µg/mL (≈ 77.2 µM); in [4] it was 8 µg/mL (≈ 38.6 µM); in series [5], 16 µg/mL (≈ 77.2 µM). Also, the MBC (in general, the smallest concentration meeting the test's criterion for killing) is 32 µg/mL (≈ 154 µM) in series [6], more than 64 µg/mL in series [7], more than 64 µg/mL in [8] and 16 µg/mL (≈ 77.2 µM) in series [9].

As to `COc1ccc(/C=C/[N+](=O)[O-])cc1OC` [Compound 22, 1,2-dimethoxy-4-((E)-2-nitrovinyl) benzene], the “Anti-leishmanial activity, in words” value in [1] is “inactive”. The MIC in series [2] is 64 µg/mL (≈ 306 µM); in series [3], 16 µg/mL (≈ 76.5 µM); in [4] it was 32 µg/mL (≈ 153 µM); in series [5], 32 µg/mL (≈ 153 µM); in series [6], more than 64 µg/mL; in series [7] it was more than 64 µg/mL. Also, the MIC was more than 64 µg/mL in series [8] and 64 µg/mL (≈ 306 µM) in series [9]. The MFC is 64 µg/mL (≈ 306 µM) in [2], 16 µg/mL (≈ 76.5 µM) in series [3], 32 µg/mL (≈ 153 µM) in [4] and 64 µg/mL (≈ 306 µM) in [5]. In addition, the MBC is more than 64 µg/mL in [6], more than 64 µg/mL in [7], more than 64 µg/mL in series [8] and 64 µg/mL (≈ 306 µM) in series [9].

`CC/C(=C\c1ccc(OC)c(OC)c1)[N+](=O)[O-]` [Compound 24, 1,2-dimethoxy-4-((E)-2-nitrobut-1-enyl) benzene]: the melting point (as a rule, the temperature of the solid-liquid transition) fell in the range of 78 to 80 °C. The “Anti-leishmanial activity, in words” value in [1] was “inactive”.

The molecule `C/C(=C\[N+](=O)[O-])c1ccc(O)cc1` [Compound 25, 4-((E)-1-nitroprop-1-en-2-yl)phenol] displayed a melting point of 88 to 90 °C. Besides, the “Anti-leishmanial activity, in words” value in series [1] is listed as “loss of activity”.

In turn, `C/C(=C\c1c[nH]c2ccccc12)[N+](=O)[O-]` [Compound 29, 3-((E)-2-nitroprop-1-enyl)-1H-indole] gave a melting point of 182 to 184 °C. Besides, in [2], the MIC came out at 64 µg/mL (≈ 316 µM) and the MFC amounted to 64 µg/mL (≈ 316 µM). In series [3], the MIC came out at 8 µg/mL (≈ 39.6 µM) and the MFC was determined as 8 µg/mL (≈ 39.6 µM). In series [4], the MIC turned out to be 8 µg/mL (≈ 39.6 µM) and the MFC came out at 8 µg/mL (≈ 39.6 µM). Also, in [5], the MIC turned out to be 16 µg/mL (≈ 79.1 µM) and the MFC amounted to 16 µg/mL (≈ 79.1 µM). Moreover, in series [6], the minimal inhibitory concentration (MIC) is 16 µg/mL (≈ 79.1 µM) and the MBC came out at 16 µg/mL (≈ 79.1 µM). Also, in series [7], the MIC was more than 64 µg/mL and the MBC is more than 64 µg/mL. Further, in series [8], the MIC is more than 64 µg/mL and the MBC was more than 64 µg/mL. Moreover, in series [9], the minimum inhibitory concentration (MIC) was 8 µg/mL (≈ 39.6 µM) and the MBC was found to be 8 µg/mL (≈ 39.6 µM).

In turn, `CC/C(=C\c1c[nH]c2ccccc12)[N+](=O)[O-]` [Compound 30, 3-((E)-2-nitrobut-1-enyl)-1H-indole] registered a melting point of 64 to 66 °C. In series [2], the MIC is more than 64 µg/mL and the MFC is more than 64 µg/mL. Also, in series [3], the MIC worked out at 32 µg/mL (≈ 148 µM) and the MFC came out at 64 µg/mL (≈ 296 µM). In series [4], the MIC is 32 µg/mL (≈ 148 µM) and the MFC came to 32 µg/mL (≈ 148 µM). For the same molecule, in series [5], the MIC was determined as 64 µg/mL (≈ 296 µM) and the minimal fungicidal concentration (MFC) stood at 64 µg/mL (≈ 296 µM). Moreover, in [6], the MIC is 16 µg/mL (≈ 74 µM) and the MBC worked out at 16 µg/mL (≈ 74 µM). Further, in series [7], the minimal inhibitory concentration (MIC) was more than 64 µg/mL and the MBC is more than 64 µg/mL. In [8], the MIC worked out at 64 µg/mL (≈ 296 µM) and the MBC is more than 64 µg/mL. Moreover, in [9], the MIC was determined as 8 µg/mL (≈ 37 µM) and the MBC was found to be 8 µg/mL (≈ 37 µM).
